Data: patent publication US20080318792A1, “Extension of pollination period” (priority 2007, published 2008)

What was measured:
Format in all cases: in vivo
[1] = tested on: Hughes 1883 hybrid corn seed; assay: Soil germination/emergence of corn seed treated with different forms of ABA in slurry; conditions: for delay: treatments with ABA vs control; for Final emergence / QR / T50: 25 g/cwt as free acid
Experimental: Three forms of ABA were evaluated in this experiment 1) free acid, 2) ammonium salt, and 3) sodium salt. The cation is referred to as the “counter-ion” below. […] The treatments were made up in 3 ml samples of experimental aqueous seed treatment slurry. All of the seed treatment slurry samples contained CF-Clear film-forming agent and Colorcoat Red (Becker Underwood), each at 1 oz/cwt, and 0.167 oz/cwt Maxim XL fungicide (Syngenta). The slurry application volume was 20 oz/cwt (cwt=100 lbs of seed).
One hundred gram samples of Hughes 1883 hybrid corn seed were treated with the experimental slurries using a Hege 11 seed treater with a six-inch bowl.
The seed was planted in plastic boxes containing 1 kg of typical agricultural silt loam. Fifty seeds were planted 3 cm deep in each plastic box, and the soil in the box was adjusted to 21% soil moisture (wet-weight basis). Two replications of the experiment were incubated under constant light in a 25° C. chamber and two replications incubated under constant light in an 18° C. chamber. The boxes were watered up to the correct weight daily, and checked for emergence. Daily counts of seedlings were continued until emergence ceased. The final count of emerged seedlings was expressed as a percentage of the 50 seeds planted (GERM).
The daily counts were converted to proportions of the final germination of the box, and a Gompertz curve was fitted to the data from each box using SAS Proc NLIN. From the parameters of the model, median germination time (T50) and quartile range (QR) were estimated for each box. Analysis of variance was performed and means calculated for each of the three responses (GERM, T50, QR).

[2] = tested on: sweet corn seed (cv. Silver Queen); assay: Germination of sweet corn seed on moist blotters at 15° C. after seed treatment; conditions: blotters 15° C.; for Coleoptile protrusion CGERM / Radicle protrusion RGERM: maximum by day 27
Experimental: ABA acid and three analogs were dissolved in ethanol to produce the desired doses. […] Aliquotes (250 μl) of ethanol solutions of the agents were added to 10 g samples of the seed and the seeds were agitated and dried overnight. Germination tests were conducted on moist blotters at 15° C. in petri dishes. Four replications of 10 seeds each were performed.
Radicle and coleoptile protrusion were counted approximately daily for 27 days. The maximum radical protrusion (RGERM) and maximum coleoptile protrusion (CGERM) were expressed as percentages from each dish. The daily counts were expressed as proportions of the protrusion maxima from each dish, and Gompertz curves were fitted to the protrusion data using SAS Proc NLIN. From the parameters of the models, median time to radicle protrusion (RT50), and median-time-to-coleoptile protrusion (CT50) were estimated for each dish. Analysis of variance was performed and means calculated for each of the four responses (RGERM, CGERM, RT50 and CT50).

[3] = tested on: corn inbred lines B91 and B95; assay: Field emergence and anthesis of inbred corn seed treated with ABA
Experimental: Seed of inbred lines B91 and B95 was obtained from Iowa State University. These inbreds are from the BSCB1 heterotic group, and are representative of many male parents used in hybrid corn seed production. ABA in the form of the ammonium salt was applied at rates of 0, 25, 50 and 100 g/cwt (as free acid). Application was performed as described under Example 2 above, except the CF-Clear and Color Coat Red (Becker Underwood) were applied at 0.5 oz/cwt, and Maxim XL (Syngenta) was applied at 0.334 oz/cwt, using a slurry rate of 15 oz/cwt. The seed samples were mechanically planted in small plots of one five hundredth acre each at Woodstock, Ill., Stoughton, Wis. and Winnebago, Ill. Three plots of each treatment were planted at each location. Standard cultural practices for corn production were used. The plots were examined daily, and seedling emergence counted in each plot every day or two during the month after planting. Data were analyzed as described under Example 2 above.

[4] = Stoughton, inbred B91, ABA (ammonium salt) 25 g/cwt as free acid
[5] = Stoughton, inbred B91, ABA (ammonium salt) 50 g/cwt as free acid
[6] = Stoughton, inbred B91, ABA (ammonium salt) 100 g/cwt as free acid
[7] = Stoughton, inbred B95, ABA (ammonium salt) 25 g/cwt as free acid
[8] = Stoughton, inbred B95, ABA (ammonium salt) 50 g/cwt as free acid
[9] = Stoughton, inbred B95, ABA (ammonium salt) 100 g/cwt as free acid
[10] = Winnebago, inbred B91, ABA (ammonium salt) 25 g/cwt as free acid
[11] = Winnebago, inbred B91, ABA (ammonium salt) 50 g/cwt as free acid
[12] = Winnebago, inbred B91, ABA (ammonium salt) 100 g/cwt as free acid
[13] = Winnebago, inbred B95, ABA (ammonium salt) 25 g/cwt as free acid
[14] = Winnebago, inbred B95, ABA (ammonium salt) 50 g/cwt as free acid
[15] = Winnebago, inbred B95, ABA (ammonium salt) 100 g/cwt as free acid
[16] = Woodstock, inbred B91, ABA (ammonium salt) 25 g/cwt as free acid
[17] = Woodstock, inbred B91, ABA (ammonium salt) 50 g/cwt as free acid
[18] = Woodstock, inbred B91, ABA (ammonium salt) 100 g/cwt as free acid
[19] = Woodstock, inbred B95, ABA (ammonium salt) 25 g/cwt as free acid
[20] = Woodstock, inbred B95, ABA (ammonium salt) 50 g/cwt as free acid
[21] = Woodstock, inbred B95, ABA (ammonium salt) 100 g/cwt as free acid

For `CC1=CC(=O)CC(C)(C)[C@@]1(O)/C=C/C(C)=C\C(=O)O` [ABA, S-(+)-abscisic acid], the “delay as a fraction of the germination time of the control at the same temperature” value ([1]; 18 and 25° C.) was “roughly doubling the time to emergence”, the delay ([1]; 18° C.) was 5.8 days and the Final emergence ([1]; soil 18° C.) was 97%. It also gave a QR ([1]; soil 18° C.) of 2.96 days, a T50 ([1]; soil 18° C.) of 11.4 days and a Final emergence ([1]; soil 25° C.) of 96%. The QR ([1]; soil 25° C.) was 1.32 days, the T50 ([1]; soil 25° C.) was 7.7 days and the delay ([1]; 25° C.) was 4.4 days. The median-time-to-germination ([1]; regardless of counter-ion, 18 and 25° C., p<0.0001) was “increased”, the Quartile range ([1]; regardless of counter-ion, 18 and 25° C., p<0.0002) was “increased” and the “Coleoptile protrusion CT50” value ([2]; dose 10 ppm) was 9.70 days. For the same compound, the “Radicle protrusion RT50” value ([2]; dose 10 ppm) was 5.99 days, the “Coleoptile protrusion CGERM” value ([2]; dose 10 ppm) was 80.0% and the “Radicle protrusion RGERM” value ([2]; dose 10 ppm) was 87.5%. The “Coleoptile protrusion CT50” value ([2]; dose 100 ppm) was 12.80 days, the “Radicle protrusion RT50” value ([2]; dose 100 ppm) was 7.28 days and the “Coleoptile protrusion CGERM” value ([2]; dose 100 ppm) was 65.0%. The “Radicle protrusion RGERM” value ([2]; dose 100 ppm) was 77.5%, the “Coleoptile protrusion CT50” value ([2]; dose 1000 ppm) was 18.44 days and the “Radicle protrusion RT50” value ([2]; dose 1000 ppm) was 8.58 days. For the same compound, the “Coleoptile protrusion CGERM” value ([2]; dose 1000 ppm) was 22.5%, the “Radicle protrusion RGERM” value ([2]; dose 1000 ppm) was 85.0% and the effect on anthesis ([3]; Stoughton and Winnebago, ABA 25-100 g/cwt) was “progressively delayed anthesis”. The Final emergence [3, 4] was 96.2%, the “Median time to anthesis” value [3, 4] was 79.2 days and the “Median time to emergence” value [3, 4] was 11.9 days. The Final emergence [3, 5] was 95.0%, the “Median time to anthesis” value [3, 5] was 80.1 days and the “Median time to emergence” value [3, 5] was 12.6 days. For the same compound, the Final emergence [3, 6] was 94.3%, the “Median time to anthesis” value [3, 6] was 79.8 days and the “Median time to emergence” value [3, 6] was 14.1 days. For the same compound, the Final emergence [3, 7] was 98.1%, the “Median time to anthesis” value [3, 7] was 81.8 days and the “Median time to emergence” value [3, 7] was 12.5 days. The Final emergence [3, 8] was 98.1%, the “Median time to anthesis” value [3, 8] was 82.4 days and the “Median time to emergence” value [3, 8] was 14.1 days. The Final emergence [3, 9] was 99.0%, the “Median time to anthesis” value [3, 9] was 81.3 days and the “Median time to emergence” value [3, 9] was 14.3 days. For the same compound, the Final emergence [3, 10] was 98.5%, the “Median time to anthesis” value [3, 10] was 74.4 days and the “Median time to emergence” value [3, 10] was 8.8 days. For the same compound, the Final emergence [3, 11] was 96.4%, the “Median time to anthesis” value [3, 11] was 75.1 days and the “Median time to emergence” value [3, 11] was 9.7 days. The Final emergence [3, 12] was 94.4%, the “Median time to anthesis” value [3, 12] was 76.4 days and the “Median time to emergence” value [3, 12] was 11.5 days. The Final emergence [3, 13] was 94.8%, the “Median time to anthesis” value [3, 13] was 79.8 days and the “Median time to emergence” value [3, 13] was 10.3 days. The Final emergence [3, 14] was 95.0%, the “Median time to anthesis” value [3, 14] was 79.5 days and the “Median time to emergence” value [3, 14] was 11.3 days. For the same compound, the Final emergence [3, 15] was 89.8%, the “Median time to anthesis” value [3, 15] was 80.8 days and the “Median time to emergence” value [3, 15] was 12.7 days. The Final emergence [3, 16] was 99.0%, the “Median time to emergence” value [3, 16] was 11.4 days and the Final emergence [3, 17] was 94.5%. For the same compound, the “Median time to emergence” value [3, 17] was 13.7 days, the Final emergence [3, 18] was 92.0% and the “Median time to emergence” value [3, 18] was 14.3 days. The Final emergence [3, 19] was 94.8%, the “Median time to emergence” value [3, 19] was 13.8 days and the Final emergence [3, 20] was 96.8%. The “Median time to emergence” value [3, 20] was 15.3 days, the Final emergence [3, 21] was 89.6% and the “Median time to emergence” value [3, 21] was 18.9 days. For the same compound, the “effect on final stand” value ([3]; any of the locations) was “did not significantly reduce final stand” and the “effect on emergence from the soil” value ([3]; every location, ABA 25-100 g/cwt) was “progressive and significant delay in emergence”.
